{
  "source": "paper PMC5321434",
  "about": "“Dihydrobenz[e][1,4]oxazepin-2(3H)-ones, a new anthelmintic chemotype immobilising whipworm and reducing infectivity in vivo” (PLoS Neglected Tropical Diseases, 2017)",
  "tested_on": "adult T. muris",
  "assay": "Ex vivo adult T. muris automated motility assay (primary/secondary screen at 100 μM and dose-response)",
  "design": "species or system Trichuris muris",
  "details": "for PRIMARY_SCREEN_MINUS_LOG_FOLD_CHANGE_MOVEMENT: primary screen; for PRIMARY_SCREEN_MINUS_LOG_FOLD_CHANGE_MOVEMENT / SECONDARY_SCREEN_MINUS_LOG_FOLD_CHANGE_MOVEMENT: adult T. muris motility; for SECONDARY_SCREEN_MINUS_LOG_FOLD_CHANGE_MOVEMENT: secondary screen",
  "how_it_was_run": "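Adult worms recovered from SCID mice at day 35 post-infection (200 eggs orally), one per well, in RPMI-1640 with penicillin/streptomycin and 1% DMSO. Compound at 100 μM final in primary screen, 24 h at 37 °C, 5% CO2; motility from pixel-variance imaging, dose-response by four-parameter log-logistic fit.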",
  "key": {"[1]": {"details": "combined primary and secondary screen minus log fold change in movement, adult T. muris, 100 μM"}, "[2]": {"details": "adult T. muris motility screen at 100 μM, combines primary and secondary screen minus log fold change in movement (mean where both are given)"}},
  "data": [
    {"smiles": "Cn1cc(-c2ccc3c(c2)N(Cc2ccc(C(F)(F)F)cc2)C(=O)COC3)cn1", "note": "[Compound 166]", "values": [
      {"measurement": "COMBINED_SCREEN_ACTIVITY", "setting": "[1]", "result": 11.5841},
      {"measurement": "PRIMARY_SCREEN_MINUS_LOG_FOLD_CHANGE_MOVEMENT", "setting": "100 μM", "result": 10.5493},
      {"measurement": "SECONDARY_SCREEN_MINUS_LOG_FOLD_CHANGE_MOVEMENT", "setting": "100 μM", "result": 12.6188}
    ]},
    {"smiles": "O=C1COCc2ccc(-c3ccc4ccccc4c3)cc2N1CCN1CCOCC1", "note": "[Compound 167]", "values": [
      {"measurement": "COMBINED_SCREEN_ACTIVITY", "setting": "[1]", "result": 3.214},
      {"measurement": "PRIMARY_SCREEN_MINUS_LOG_FOLD_CHANGE_MOVEMENT", "setting": "100 μM", "result": 3.214}
    ]},
    {"smiles": "O=C1COCc2cc(-c3cccc(CO)c3)ccc2N1Cc1ccc2c(c1)OCO2", "note": "[Compound 168]", "values": [
      {"measurement": "COMBINED_SCREEN_ACTIVITY", "setting": "[1]", "result": 1.914},
      {"measurement": "PRIMARY_SCREEN_MINUS_LOG_FOLD_CHANGE_MOVEMENT", "setting": "100 μM", "result": 1.914}
    ]},
    {"smiles": "COc1cccc(CN2C(=O)COCc3ccc(-c4ccc5c(c4)OCO5)cc32)c1", "note": "[Compound 169]", "values": [
      {"measurement": "COMBINED_SCREEN_ACTIVITY", "setting": "[1]", "result": 0.1266},
      {"measurement": "PRIMARY_SCREEN_MINUS_LOG_FOLD_CHANGE_MOVEMENT", "setting": "100 μM", "result": 0.1266}
    ]},
    {"smiles": "COCc1cccc(-c2ccc3c(c2)COCC(=O)N3Cc2cccc(OC)c2)c1", "note": "[Compound 170]", "values": [
      {"measurement": "COMBINED_SCREEN_ACTIVITY", "setting": "[1]", "result": -0.3892},
      {"measurement": "PRIMARY_SCREEN_MINUS_LOG_FOLD_CHANGE_MOVEMENT", "setting": "100 μM", "result": -0.3892}
    ]},
    {"smiles": "COc1ccc(-c2ccc3c(c2)N(CCc2ccccc2)C(=O)COC3)cc1OC", "note": "[Compound 171]", "values": [
      {"measurement": "COMBINED_SCREEN_ACTIVITY", "setting": "[1]", "result": 7.742},
      {"measurement": "PRIMARY_SCREEN_MINUS_LOG_FOLD_CHANGE_MOVEMENT", "setting": "100 μM", "result": 7.742}
    ]},
    {"smiles": "COCc1cccc(-c2ccc3c(c2)N(Cc2cccc(OC)c2)C(=O)COC3)c1", "note": "[Compound 172]", "values": [
      {"measurement": "COMBINED_SCREEN_ACTIVITY", "setting": "[1]", "result": -0.3707},
      {"measurement": "PRIMARY_SCREEN_MINUS_LOG_FOLD_CHANGE_MOVEMENT", "setting": "100 μM", "result": -0.3707}
    ]},
    {"smiles": "O=C1COCc2ccc(-c3cnc4ccccc4c3)cc2N1CCN1CCOCC1", "note": "[Compound 173]", "values": [
      {"measurement": "COMBINED_SCREEN_ACTIVITY", "setting": "[1]", "result": 0.2312},
      {"measurement": "PRIMARY_SCREEN_MINUS_LOG_FOLD_CHANGE_MOVEMENT", "setting": "100 μM", "result": 0.2312}
    ]},
    {"smiles": "O=C1COCc2cc(-c3cc(F)cc(Cl)c3)ccc2N1CCN1CCOCC1", "note": "[Compound 174]", "values": [
      {"measurement": "COMBINED_SCREEN_ACTIVITY", "setting": "[1]", "result": -1.356},
      {"measurement": "PRIMARY_SCREEN_MINUS_LOG_FOLD_CHANGE_MOVEMENT", "setting": "100 μM", "result": -1.356}
    ]},
    {"smiles": "O=C1COCc2ccc(-c3ccc(F)c(Cl)c3)cc2N1CCN1CCOCC1", "note": "[Compound 175]", "values": [
      {"measurement": "COMBINED_SCREEN_ACTIVITY", "setting": "[1]", "result": 0.9531},
      {"measurement": "PRIMARY_SCREEN_MINUS_LOG_FOLD_CHANGE_MOVEMENT", "setting": "100 μM", "result": 0.9531}
    ]},
    {"smiles": "O=C1COCc2ccc(-c3cc(F)cc(Cl)c3)cc2N1CCN1CCOCC1", "note": "[Compound 176]", "values": [
      {"measurement": "COMBINED_SCREEN_ACTIVITY", "setting": "[1]", "result": -1.404},
      {"measurement": "PRIMARY_SCREEN_MINUS_LOG_FOLD_CHANGE_MOVEMENT", "setting": "100 μM", "result": -1.404}
    ]},
    {"smiles": "COc1cccc(CN2C(=O)COCc3cc(-c4ccc(F)cc4OC)ccc32)c1", "note": "[Compound 177]", "values": [
      {"measurement": "COMBINED_SCREEN_ACTIVITY", "setting": "[1]", "result": -1.282},
      {"measurement": "PRIMARY_SCREEN_MINUS_LOG_FOLD_CHANGE_MOVEMENT", "setting": "100 μM", "result": -1.282}
    ]},
    {"smiles": "O=C(O)c1cccc(-c2ccc3c(c2)N(Cc2cc(F)cc(F)c2)C(=O)COC3)c1", "note": "[Compound 178]", "values": [
      {"measurement": "COMBINED_SCREEN_ACTIVITY", "setting": "[1]", "result": -2.449},
      {"measurement": "PRIMARY_SCREEN_MINUS_LOG_FOLD_CHANGE_MOVEMENT", "setting": "100 μM", "result": -2.449}
    ]},
    {"smiles": "COCc1cccc(-c2ccc3c(c2)COCC(=O)N3Cc2cc(F)cc(F)c2)c1", "note": "[Compound 179]", "values": [
      {"measurement": "COMBINED_SCREEN_ACTIVITY", "setting": "[1]", "result": 0.9799},
      {"measurement": "PRIMARY_SCREEN_MINUS_LOG_FOLD_CHANGE_MOVEMENT", "setting": "100 μM", "result": 0.9799}
    ]},
    {"smiles": "CC(C)Oc1cccc(-c2ccc3c(c2)N(CCN2CCOCC2)C(=O)COC3)c1", "note": "[Compound 180]", "values": [
      {"measurement": "COMBINED_SCREEN_ACTIVITY", "setting": "[1]", "result": -1.713},
      {"measurement": "PRIMARY_SCREEN_MINUS_LOG_FOLD_CHANGE_MOVEMENT", "setting": "100 μM", "result": -1.713}
    ]},
    {"smiles": "COc1cc(F)ccc1-c1ccc2c(c1)N(Cc1cc(F)cc(F)c1)C(=O)COC2", "note": "[Compound 181]", "values": [
      {"measurement": "COMBINED_SCREEN_ACTIVITY", "setting": "[2]", "result": -0.2325},
      {"measurement": "PRIMARY_SCREEN_MINUS_LOG_FOLD_CHANGE_MOVEMENT", "setting": "100 μM", "result": -0.2325}
    ]},
    {"smiles": "COc1cc(F)ccc1-c1ccc2c(c1)COCC(=O)N2Cc1cc(F)cc(F)c1", "note": "[Compound 182]", "values": [
      {"measurement": "COMBINED_SCREEN_ACTIVITY", "setting": "[1]", "result": -0.8244},
      {"measurement": "PRIMARY_SCREEN_MINUS_LOG_FOLD_CHANGE_MOVEMENT", "setting": "100 μM", "result": -0.8244}
    ]},
    {"smiles": "COC(=O)c1cccc(-c2ccc3c(c2)N(Cc2cccc(OC)c2)C(=O)COC3)c1", "note": "[Compound 183]", "values": [
      {"measurement": "COMBINED_SCREEN_ACTIVITY", "setting": "[2]", "result": -1.271},
      {"measurement": "PRIMARY_SCREEN_MINUS_LOG_FOLD_CHANGE_MOVEMENT", "setting": "100 μM", "result": -1.271}
    ]},
    {"smiles": "O=C1COCc2ccc(-c3cccc(C(F)(F)F)c3)cc2N1CCN1CCOCC1", "note": "[Compound 184]", "values": [
      {"measurement": "COMBINED_SCREEN_ACTIVITY", "setting": "[1]", "result": -1.964},
      {"measurement": "PRIMARY_SCREEN_MINUS_LOG_FOLD_CHANGE_MOVEMENT", "setting": "100 μM", "result": -1.964}
    ]},
    {"smiles": "CC(=O)Nc1cccc(-c2ccc3c(c2)N(Cc2cc(F)cc(F)c2)C(=O)COC3)c1", "note": "[Compound 185]", "values": [
      {"measurement": "COMBINED_SCREEN_ACTIVITY", "setting": "[2]", "result": 6.728},
      {"measurement": "PRIMARY_SCREEN_MINUS_LOG_FOLD_CHANGE_MOVEMENT", "setting": "100 μM", "result": 10.5493},
      {"measurement": "SECONDARY_SCREEN_MINUS_LOG_FOLD_CHANGE_MOVEMENT", "setting": "100 μM", "result": 2.906}
    ]},
    {"smiles": "Cc1ccc(-c2ccc3c(c2)COCC(=O)N3Cc2ccc(C(=O)N(C)C)cc2)cc1C", "note": "[Compound 186]", "values": [
      {"measurement": "COMBINED_SCREEN_ACTIVITY", "setting": "[2]", "result": 10.5493},
      {"measurement": "PRIMARY_SCREEN_MINUS_LOG_FOLD_CHANGE_MOVEMENT", "setting": "100 μM", "result": 10.5493}
    ]}
  ]
}
